As a reminder, the IC50 is the concentration that inhibits the measured activity by half. Read a high IC50 as weaker potency.

This assay concerns the target T1, hCRTH2 receptor (Homo sapiens, UniProt Q9Y5Y4).
T1 construct: expressed in transfected cells; host or cells: HEK293
T1 sequence (Q9Y5Y4 1-395): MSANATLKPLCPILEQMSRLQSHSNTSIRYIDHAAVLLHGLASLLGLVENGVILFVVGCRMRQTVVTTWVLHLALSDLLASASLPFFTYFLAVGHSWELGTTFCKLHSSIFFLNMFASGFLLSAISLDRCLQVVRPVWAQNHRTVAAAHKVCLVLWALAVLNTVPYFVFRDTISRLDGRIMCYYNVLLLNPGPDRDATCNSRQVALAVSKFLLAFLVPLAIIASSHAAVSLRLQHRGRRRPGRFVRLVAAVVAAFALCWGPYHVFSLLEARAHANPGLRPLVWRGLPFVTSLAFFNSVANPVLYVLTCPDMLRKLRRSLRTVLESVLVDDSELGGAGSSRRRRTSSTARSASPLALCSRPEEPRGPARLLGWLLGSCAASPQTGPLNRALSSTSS
Nature of the assay: Radioligand displacement assay (3H-PGD2) on hCRTH2 receptor membranes. The format is binding. The conditions noted are these: antagonistic activity; 3H-PGD2 displacement on HEK293-hCRTH2 membrane fragments. Here is the method: First, recombinant HEK293-hCRTH2 cells were detached from culture plates into 5 ml buffer A/plate (Buffer A: 5 mM Tris, 1 mM MgCl2-6H2O pH=7.4) using a rubber policeman. Cells were then transferred into centrifugation tubes and centrifuged for 5 min at 400 g. The cell pellet was resuspended in the same buffer and tubes were frozen at −80° C. Cells were thawed and membrane fragments were generated by homogenization using a polytron homogenizer (30 seconds). The membrane fragments were then centrifuged at 3000 g for 20 minutes and resuspended in buffer C (Buffer C: 75 mM Tris, 25 mM MgCl2, 250 mM Saccharose pH 7.4). Aliquots of membrane fragments were stored at −20° C.
Binding assay was performed in a final assay volume of 250 μl. First, 25 μl of test compound, previously diluted in Binding-Buffer (Binding-Buffer: 50 mM Tris-Base, 100 mM NaCl, 1 mM EDTA, 0.1% BSA (protease free), 0.01% NaN3, 10 mM MnCl2, pH 7.0) was placed into each well. After addition of 75 μl Binding-Buffer, 50 μl of the radioligand ^3H-PGD2 (at 2.5 nM (220.000 dpm/well) from ANAWA ART0662) was added to each well. Binding assay was started by addition of 100 μl CRTH2 membrane fragments, reaching a final concentration of 20 μg/well. For non-specific binding, PGD2 was added to the reaction mixture to […] final concentration.
This assay mix was incubated for 90 minutes at room temperature and then filtered through a GF/C filter 96-well plate which was pre-soaked for 3 hours in 0.5% polyethyleneimine (PEI). The filter-wells were washed three times with ice cold Binding-Buffer. Then, 40 μl of Microscint-40 (Packard) was added to each well and the retained radioactivity quantified in a Topcount (Packard).
On the technique in general: Displacement assays read how much labelled ligand stays bound in the presence of the test substance.
As to `Cc1[nH]c2ccccc2c1CCC(=O)N1CCc2ccccc2C1c1cc(F)ccc1OCC(=O)O` (racemic) [Example 65, (±)-(4-Fluoro-2-{2-[3-(2-methyl-1H-indol-3-yl)-propionyl]-1,2,3,4-tetrahydro-isoquinolin-1-yl}-phenoxy)-acetic acid], the IC50 was determined as 191 nM.
In the case of `Cn1cc(CCC(=O)N2CCc3ccccc3C2c2cc(F)ccc2OCC(=O)O)c2ccccc21` (racemic) [Example 66, (±)-(4-Fluoro-2-{2-[3-(1-methyl-1H-indol-3-yl)-propionyl]-1,2,3,4-tetrahydro-isoquinolin-1-yl}-phenoxy)-acetic acid], the IC50 amounted to 27.5 nM.
Under `O=C(O)COc1ccc(F)cc1C1c2ccccc2CCN1C(=O)[C@@H]1C[C@H]1c1ccccc1` (mixture of isomers) [Example 67, (±)-{4-Fluoro-2-[2-(trans-2-phenyl-cyclopropanecarbonyl)-1,2,3,4-tetrahydro-isoquinolin-1-yl]-phenoxy}-acetic acid] stands 15.5 nM.
Under `O=C(O)COc1ccc(Cl)cc1C1c2ccccc2CCN1C(=O)CC1CC1` (racemic) [Example 68, (±)-{4-Chloro-2-[2-(2-cyclopropyl-acetyl)-1,2,3,4-tetrahydro-isoquinolin-1-yl]-phenoxy}-acetic acid] stands 508 nM; under `O=C(O)COc1ccc(Cl)cc1C1c2ccccc2CCN1C(=O)C1=Cc2ccccc2OC1` (racemic) [Example 69, (±)-{4-Chloro-2-[2-(2H-chromene-3-carbonyl)-1,2,3,4-tetrahydro-isoquinolin-1-yl]-phenoxy}-acetic acid], 377 nM; under `COCCC(=O)N1CCc2ccccc2C1c1cc(Cl)ccc1OCC(=O)O` (racemic) [Example 70, (±)-{4-Chloro-2-[2-(3-methoxy-propionyl)-1,2,3,4-tetrahydro-isoquinolin-1-yl]-phenoxy}-acetic acid], 139 nM.
`O=C(O)COc1ccc(Cl)cc1C1c2ccccc2CCN1C(=O)Cc1ccccc1Cl` (racemic) [Example 71, (±)-(4-Chloro-2-{2-[2-(2-chloro-phenyl)-acetyl]-1,2,3,4-tetrahydro-isoquinolin-1-yl}-phenoxy)-acetic acid] showed a half-maximal inhibitory concentration (IC50) of 291 nM.
On to `O=C(O)COc1ccc(Cl)cc1C1c2ccccc2CCN1C(=O)Cn1ccc2ccccc21` (racemic) [Example 72, (±)-{4-Chloro-2-[2-(2-indol-1-yl-acetyl)-1,2,3,4-tetrahydro-isoquinolin-1-yl]-phenoxy}-acetic acid], for which the IC50 is 44 nM.
Under `Cc1[nH]c2ccccc2c1CCC(=O)N1CCc2ccccc2C1c1cc(Cl)ccc1OCC(=O)O` (racemic) [Example 73, (±)-(4-Chloro-2-{2-[3-(2-methyl-1H-indol-3-yl)-propionyl]-1,2,3,4-tetrahydro-isoquinolin-1-yl}-phenoxy)-acetic acid] stands 4.13 nM.
`COc1ccc2[nH]cc(CCC(=O)N3CCc4ccccc4C3c3cc(Cl)ccc3OCC(=O)O)c2c1` (racemic) [Example 74, (±)-(4-Chloro-2-{2-[3-(5-methoxy-1H-indol-3-yl)-propionyl]-1,2,3,4-tetrahydro-isoquinolin-1-yl}-phenoxy)-acetic acid] gave an IC50 of 1.42 nM.
On to `Cc1ccc(OCC(=O)N2CCc3ccccc3C2c2cc(Cl)ccc2OCC(=O)O)c(C)n1` (racemic) [Example 75, (±)-(4-Chloro-2-{2-[2-(2,6-dimethyl-pyridin-3-yloxy)-acetyl]-1,2,3,4-tetrahydro-isoquinolin-1-yl}-phenoxy)-acetic acid], for which the IC50 amounted to 3.68 nM.
Next, `Cn1cc(CCC(=O)N2CCc3ccccc3C2c2cc(Cl)ccc2OCC(=O)O)c2ccccc21` (racemic) [Example 76, (±)-(4-Chloro-2-{2-[3-(1-methyl-1H-indol-3-yl)-propionyl]-1,2,3,4-tetrahydro-isoquinolin-1-yl}-phenoxy)-acetic acid]: 4.46 nM.
For the compound `O=C(O)COc1ccc(Cl)cc1C1c2ccccc2CCN1C(=O)Cn1cnc2ccccc21` (racemic) [Example 78, (±)-{2-[2-(2-Benzoimidazol-1-yl-acetyl)-1,2,3,4-tetrahydro-isoquinolin-1-yl]-4-chloro-phenoxy}-acetic acid], the IC50 worked out at 51.1 nM. This IC50 is about 11-fold higher than that of the compound before.
Next, `O=C(O)COc1ccc(Cl)cc1C1c2ccccc2CCN1C(=O)CN1CCCc2ccccc21` (racemic) [Example 79, (±)-{4-Chloro-2-[2-(2-3,4-dihydro-2H-quinolin-1-yl-acetyl)-1,2,3,4-tetrahydro-isoquinolin-1-yl]-phenoxy}-acetic acid]: 62.9 nM; `O=C(O)COc1ccc(Cl)cc1C1c2ccccc2CCN1C(=O)Cn1cc2ccccc2n1` (racemic) [Example 80, (±)-{4-Chloro-2-[2-(2-indazol-2-yl-acetyl)-1,2,3,4-tetrahydro-isoquinolin-1-yl]-phenoxy}-acetic acid]: 46.9 nM.
Turning to `O=C(O)COc1ccc(Cl)cc1C1c2ccccc2CCN1C(=O)CCc1cccc(C(F)(F)F)c1` (racemic) [Example 81, (±)-(4-Chloro-2-{2-[3-(3-trifluoromethyl-phenyl)-propionyl]-1,2,3,4-tetrahydro-isoquinolin-1-yl}-phenoxy)-acetic acid], the IC50 is 27.5 nM.
Under `O=C(O)COc1ccc(Cl)cc1C1c2ccccc2CCN1C(=O)CCc1nccn1-c1ccccc1` (racemic) [Example 83, (±)-(4-Chloro-2-{2-[3-(1-phenyl-1H-imidazol-2-yl)-propionyl]-1,2,3,4-tetrahydro-isoquinolin-1-yl}-phenoxy)-acetic acid] stands 422 nM.
Under `Cc1cccc(-n2cncc2CCC(=O)N2CCc3ccccc3C2c2cc(Cl)ccc2OCC(=O)O)c1C` (racemic) [Example 85, (±)-[4-Chloro-2-(2-{3-[3-(2,3-dimethyl-phenyl)-3H-imidazol-4-yl]-propionyl}-1,2,3,4-tetrahydro-isoquinolin-1-yl)-phenoxy]-acetic acid] stands 18.9 nM; under `O=C(O)COc1ccc(Cl)cc1C1c2ccccc2CCN1C(=O)COc1ccccc1-c1ccccc1` (racemic) [Example 86, (±)-(2-{2-[2-(Biphenyl-2-yloxy)-acetyl]-1,2,3,4-tetrahydro-isoquinolin-1-yl}-4-chloro-phenoxy)-acetic acid], 422 nM; under `O=C(O)COc1ccc(Cl)cc1C1c2ccccc2CCN1C(=O)CCOc1cccc(F)c1` (racemic) [Example 87, (±)-(4-Chloro-2-{2-[3-(3-fluoro-phenoxy)-propionyl]-1,2,3,4-tetrahydro-isoquinolin-1-yl}-phenoxy)-acetic acid], 17.8 nM.
Under `Cc1ccc(OCCC(=O)N2CCc3ccccc3C2c2cc(Cl)ccc2OCC(=O)O)cc1` (racemic) [Example 88, (±)-{4-Chloro-2-[2-(3-p-tolyloxy-propionyl)-1,2,3,4-tetrahydro-isoquinolin-1-yl]-phenoxy}-acetic acid] stands 148 nM.
Regarding `O=C(O)COc1ccc(Cl)cc1C1c2ccccc2CCN1C(=O)CCOc1ccc(Cl)cc1` (racemic) [Example 89, (±)-(4-Chloro-2-{2-[3-(4-chloro-phenoxy)-propionyl]-1,2,3,4-tetrahydro-isoquinolin-1-yl}-phenoxy)-acetic acid], the IC50 is 37.9 nM. This IC50 is about 3.9-fold lower than that of the compound before.
For `O=C(O)COc1ccc(Cl)cc1C1c2ccccc2CCN1C(=O)CCc1ccccc1C(F)(F)F` (racemic) [Example 90, (±)-(4-Chloro-2-{2-[3-(2-trifluoromethyl-phenyl)-propionyl]-1,2,3,4-tetrahydro-isoquinolin-1-yl}-phenoxy)-acetic acid], the IC50 amounted to 45.8 nM.
Regarding `O=C(O)COc1ccc(Cl)cc1C1c2ccccc2CCN1C(=O)Cc1c[nH]c2ccc(F)cc12` (racemic) [Example 91, (±)-(4-Chloro-2-{2-[2-(5-fluoro-1H-indol-3-yl)-acetyl]-1,2,3,4-tetrahydro-isoquinolin-1-yl}-phenoxy)-acetic acid], the IC50 was 113 nM. This IC50 lies about 2.5-fold higher than the previous one.
In turn, `COc1ccc2c(CC(=O)N3CCc4ccccc4C3c3cc(Cl)ccc3OCC(=O)O)coc2c1` (racemic) [Example 92, (±)-(4-Chloro-2-{2-[2-(6-methoxy-benzofuran-3-yl)-acetyl]-1,2,3,4-tetrahydro-isoquinolin-1-yl}-phenoxy)-acetic acid] came in with an IC50 of 2.86 nM.
